Reference: US12685746B2, “Cyclodextrin derivatives in the treatment or prevention of lysosomal neurodegenerative diseases” (CYCLOLAB CYCLODEXTRIN RESEARCH AND DEVELOPMENT LABORATORY …, priority 2020, dated 2026)
“Also recorded” adds a separate entry of the source.

Tests used:
[1] = tested on: 5 dpf Danio rerio larvae treated with U18666A; experiment: Mobility testing of U18666A-treated zebrafish larvae (DanioVision, distance moved); format: in vivo; settings: U18666A 1 microg/ml 16 hours, then CD 24 hours (0.5-5%); result in words, values only in FIG. 1
Experimental: Danio rerio larvae (strain AB, Casper) 5 days post fertilization (dpf) at day of testing were treated with U18666A dissolved in standard E3 medium. Reversal of U18666A (1 microg/ml) effects on overall activity of 5 dpf Danio rerio larvae by different CDs at different concentrations (0.5-5%) were tested. Larvae were pretreated with U18666A for 16 hours and thereafter treated with CD for 24 hours. Statistical analyses were performed for the individual experiments with two way ANOVA's followed by Tukey post hoc tests (** p<0.01). CDs were dissolved in standard E3 medium.
DanioVision Observation Chamber which is a complete system, designed for the high-throughput testing of zebrafish larvae in 48-wells plates. It includes an observation chamber and renowned EthoVision XT video tracking software to quantify distance moved by the animals. The results are graphically represented (distance moved—in arbritrary unit) in FIG. 1.

[2] = tested on: zebrafish model for Niemann Pick type C1 (U18666A administration); experiment: Filipin staining of five day old zebrafish larvae pretreated with U18666A (cholesterol accumulation in the brain); format: in vivo, Danio rerio; settings: for Reduction in U18666A induced cholesterol accumulation in the brain: result in words; for Heavy staining (number of larvae) / Light staining (number of larvae) / No staining (number of larvae): U18666A pretreated 5 dpf larvae; for No staining (number of larvae): fluorescence in head region; for Different from placebo: X2-test vs U18666A-placebo
Experimental: Several cyclodextrin derivatives were evaluated in a zebrafish model for Niemann Pick type C1 (U18666A administration). Cholesterol accumulation in the brain was quantified by filipin staining of Danio rerio Casper (albino strain) larvae. Results were compared with the reference compound Hydroxypropyl-β-cyclodextrin (HPBCD).
In this study the best performing Cyclodextrins were as follows: Heptakis(2,6-di-O-methyl)-beta cyclodextrin, Octakis(2,3,6-tri-O-methyl)-gamma cyclodextrin, Sualfadex sodium, Subetadex sodium Sugammadex sodium. Filipin staining of five day old zebrafish larvae (Danio rerio, Casper strain) pretreated with U18666A were studied.
Fertilized eggs were hatched and kept in an incubator at 28° C.
CDs were administered from Stock solutions (0.1%) in standard E3 medium. Preparation of E3 medium was as follows:
The stock solutions were diluted with E3. Compounds were administered in the swimming water. Each concentration was tested in 25 larvae.
Experimental compounds were tested at a 0.05% concentration. As reference Hydroxypropyl-β-cyclodextrin (Sigma) was tested at a 0.5% concentration.
Treated 5 dpf Casper larvae were fixed for 30 minutes in 4% paraformaldehyde. After washing (2 times) with PBS, they were stained for 30 minutes with 50 μg/mL filipin (Sigma) in PBS solution. Then larvae were washed (with PBS) twice.
Whole larvae were embedded and images were captured on a Dino-Lite Digital USB microscope for GFP/FITC recordings (AM4115T4). Images were evaluated by an independent assessor, unaware of the treatments. The assessor scored the fluorescence in the head region as none, light or heavy.
Data were analysed by means of X2-tests. All conditions were compared to the U18666A—placebo treatment group.
Fluorescence was measured as an index for the amount of filipin staining. The higher the filipin staining the more cholesterol accumulation there is in the brain. Individual larvae were scored (by a blinded assessor) as either heavy coloured, light coloured or not coloured at all.

[3] = Phase solubility study: interaction of cyclodextrins with unesterified cholesterol; format: physicochemical; settings: 24 hours equilibration at 25±3° C.
Experimental: Phase solubility studies were performed in 5 ml solutions at room temperature, wherein cyclodextrin solutions of discrete concentrations were weighed and excess amount of cholesterol was added. After 24 hours equilibration time at 25±3° C. (using magnetic stirrer at 500 RPM), the dissolved equilibrium cholesterol concentrations were determined by HPLC after filtration through a syringe filter having polyethylene sulfone membrane of 0.45 micron nominal pore size. The experimentally determined cholesterol concentrations in the presence of different concentrations of HPBCD, Sualfadex sodium, Subetadex sodium and Sugammadex sodium are listed in Table 3.

[4] = literature studies; cited from earlier work
[5] = dose tested 0.05% in swimming water
[6] = dose tested 0.5% in swimming water

Dissolved cholesterol concentration ([3]; CD concentration 5 w/w %) [mg/mL] | Dissolved cholesterol concentration ([3]; CD concentration 10 w/w %) [mg/mL] | Dissolved cholesterol concentration ([3]; CD concentration 15 w/w %) [mg/mL] | Molecule | Motoric activity of the test animals [1] | Reduction in U18666A induced cholesterol accumulation in the brain ([2]; 0.05%, sodium salt) | Heavy staining (number of larvae) [2, 5] | Light staining (number of larvae) [2, 5] | No staining (number of larvae) [2, 5] | Different from placebo ([2]; dose tested 0.05%) | Ototoxicity [4] | Reduction in U18666A induced cholesterol accumulation in the brain ([2]; 0.5%) | Heavy staining (number of larvae) [2, 6] | Light staining (number of larvae) [2, 6] | No staining (number of larvae) [2, 6] | Different from placebo ([2]; dose tested 0.5%) | Reduction in U18666A induced cholesterol accumulation in the brain ([2]; 0.05%)
0.062 | 0.092 | 0.246 | 6A,6B,6C,6D,6E,7F,6G-Heptakis-S-(2-carboxyethyl)-6A,6B,6C,6D,6E,6F,6G-heptathio-beta-cyclodextrin sodium salt [Subetadex sodium] | improved motoric activity | significant cholesterol-accumulation hindering activity; also recorded: very strong reduction | 5 | 15 | 4 | *** (*** p<0.001) | – | – | – | – | – | – | –
0.28 | 0.98 | 2.06 | CC(O)COC[C@H]1O[C@@H]2O[C@H]3[C@H](O)[C@@H](O)[C@@H](O[C@H]4[C@H](O)[C@@H](O)[C@@H](O[C@H]5[C@H](O)[C@@H](O)[C@@H](O[C@H]6[C@H](O)[C@@H](O)[C@@H](O[C@H]7[C@H](O)[C@@H](O)[C@@H](O[C@H]8[C@H](O)[C@@H](O)[C@@H](O[C@H]1[C@H](O)[C@H]2O)O[C@@H]8COCC(C)O)O[C@@H]7COCC(C)O)O[C@@H]6COCC(C)O)O[C@@H]5COCC(C)O)O[C@@H]4COCC(C)O)O[C@@H]3COCC(C)O (stereo partly drawn) [HPBCD, Hydroxypropyl-β-cyclodextrin] | – | – | – | – | – | – | ototoxic | significantly reduced | 9 | 13 | 2 | * (* p<0.05) | –
0.016 | 0.028 | 0.051 | O=C([O-])CCSC[C@H]1O[C@@H]2O[C@H]3[C@H](O)[C@@H](O)[C@@H](O[C@H]4[C@H](O)[C@@H](O)[C@@H](O[C@H]5[C@H](O)[C@@H](O)[C@@H](O[C@H]6[C@H](O)[C@@H](O)[C@@H](O[C@H]7[C@H](O)[C@@H](O)[C@@H](O[C@H]1[C@H](O)[C@H]2O)O[C@@H]7CSCCC(=O)[O-])O[C@@H]6CSCCC(=O)[O-])O[C@@H]5CSCCC(=O)[O-])O[C@@H]4CSCCC(=O)[O-])O[C@@H]3CSCCC(=O)[O-].[Na+].[Na+].[Na+].[Na+].[Na+].[Na+] [Sualfadex sodium, 6A,6B,6C,6D,6E,7F-Hexakis-S-(2-carboxyethyl)-6A,6B,6C,6D,6E,6F-hexathio-alpha-cyclodextrin sodium] | improved motoric activity | – | 4 | 16 | 4 | *** (*** p<0.001) | – | – | – | – | – | – | significant cholesterol-accumulation hindering activity; also recorded: very strong reduction
0.056 | 0.062 | 0.150 | O=C([O-])CCSC[C@H]1O[C@@H]2O[C@H]3[C@H](O)[C@@H](O)[C@@H](O[C@H]4[C@H](O)[C@@H](O)[C@@H](O[C@H]5[C@H](O)[C@@H](O)[C@@H](O[C@H]6[C@H](O)[C@@H](O)[C@@H](O[C@H]7[C@H](O)[C@@H](O)[C@@H](O[C@H]8[C@H](O)[C@@H](O)[C@@H](O[C@H]9[C@H](O)C(O)[C@@H](O[C@H]1[C@H](O)[C@H]2O)O[C@@H]9CSCCC(=O)[O-])O[C@@H]8CSCCC(=O)[O-])O[C@@H]7CSCCC(=O)[O-])O[C@@H]6CSCCC(=O)[O-])O[C@@H]5CSCCC(=O)[O-])O[C@@H]4CSCCC(=O)[O-])O[C@@H]3CSCCC(=O)[O-].[Na+].[Na+].[Na+].[Na+].[Na+].[Na+].[Na+].[Na+] (stereo partly drawn) [Sugammadex sodium, 6A,6B,6C,6D,6E,7F,6G,6H-Octakis-S-(2-carboxyethyl)-6A,6B,6C,6D,6E,6F,6G,6H-octathio-gamma-cyclodextrin sodium salt] | improved motoric activity | significant cholesterol-accumulation hindering activity; also recorded: very strong reduction | 4 | 15 | 5 | *** (*** p<0.001) | – | – | – | – | – | – | –

Further lines, the molecule ahead of its results:

Molecule | Dissolved cholesterol concentration ([3]; CD concentration 5 w/w %) [mg/mL] | Dissolved cholesterol concentration ([3]; CD concentration 10 w/w %) [mg/mL] | Dissolved cholesterol concentration ([3]; CD concentration 15 w/w %) [mg/mL] | Motoric activity of the test animals [1] | Reduction in U18666A induced cholesterol accumulation in the brain ([2]; 0.05%, sodium salt) | Heavy staining (number of larvae) [2, 5] | Light staining (number of larvae) [2, 5] | No staining (number of larvae) [2, 5] | Different from placebo ([2]; dose tested 0.05%) | Ototoxicity [4] | Reduction in U18666A induced cholesterol accumulation in the brain ([2]; 0.5%) | Heavy staining (number of larvae) [2, 6] | Light staining (number of larvae) [2, 6] | No staining (number of larvae) [2, 6] | Different from placebo ([2]; dose tested 0.5%) | Reduction in U18666A induced cholesterol accumulation in the brain ([2]; 0.05%)
COC[C@H]1O[C@@H]2O[C@H]3[C@H](O)[C@@H](OC)[C@@H](O[C@H]4[C@H](O)[C@@H](OC)[C@@H](O[C@H]5[C@H](O)[C@@H](OC)[C@@H](O[C@H]6[C@H](O)[C@@H](OC)[C@@H](O[C@H]7[C@H](O)[C@@H](OC)[C@@H](O[C@H]8[C@H](O)[C@@H](OC)[C@@H](O[C@H]1[C@H](O)[C@H]2OC)O[C@@H]8COC)O[C@@H]7COC)O[C@@H]6COC)O[C@@H]5COC)O[C@@H]4COC)O[C@@H]3COC [Heptakis(2,6-di-O-methyl)-beta cyclodextrin] | – | – | – | – | – | 13 | 9 | 1 | – | – | – | – | – | – | – | only a small, non-significant, reduction
COC[C@H]1O[C@H]2O[C@H]3[C@H](OC)[C@@H](OC)[C@H](O[C@H]4[C@H](OC)[C@@H](OC)[C@H](O[C@H]5[C@H](OC)[C@@H](OC)[C@H](O[C@H]6[C@H](OC)[C@@H](OC)[C@H](O[C@H]7[C@H](OC)[C@@H](OC)[C@H](O[C@H]8[C@H](OC)[C@@H](OC)[C@H](O[C@H]9[C@H](OC)[C@@H](OC)[C@H](O[C@H]1[C@H](OC)[C@H]2OC)O[C@@H]9COC)O[C@@H]8COC)O[C@@H]7COC)O[C@@H]6COC)O[C@@H]5COC)O[C@@H]4COC)O[C@@H]3COC [Octakis(2,3,6-tri-O-methyl)-gamma cyclodextrin] | – | – | – | – | – | 13 | 11 | 0 | – | – | – | – | – | – | – | only a small, non-significant, reduction
